From the supplement of paper PMC11424490 come the findings set out here.

Experiment [1] concerns NCI-H2122. Kind of experiment: fitted bottom plateau of viability curve, % of DMSO control; higher = less maximal inhibition; extreme values may be limits of the assay. In outline:
(§1)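 Compounds were dispensed acoustically as dose series, one compound per well, 24 h after seeding cells in 60 µl per well of 384-well plates (800 cells/well for NCI-H2122, 500 cells/well for SW837 and NCI-H358). Plates were incubated 144 h for SW837 and 72 h for the other two lines, then shaken 15 min and read for CellTiter-Glo luminescence on an EnVision reader. Signals were converted to percent of DMSO controls. The relative IC50, averaged over replicates, and the lower plateau come from fitting a four-parameter nonlinear model.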

The next experiment concerns NCI-H358. The experiment is described as above. In outline: as §1
Experiment [2] concerns SW837. Described as above. In outline:
as §1

In experiment [3] the test system is NCI-H2122. The experiment in a line: relative IC50 of cell viability (CellTiter-Glo); higher = less potent. As for the experimental part:
(§2)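 CellTiter-Glo proliferation assay in KRAS G12C mutant NCI-H2122 (72 h), SW837 (144 h) and NCI-H358 cells in 384-well plates. Monotherapy dose response was fitted with a four-parameter curve after normalisation to DMSO controls (% of control, PoC). IC50 is the relative IC50, averaged over replicates. Bottom is the fitted lower plateau in %PoC; Max.Conc. is the top dose tested.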
A general note: ATP-based viability assays read luminescence as a measure of living cells.

For experiment [4], the system named is SW837. Described as above. On the procedure:
as §2

For the compound `Oc1nc(-c2ccc(C(F)(F)F)cc2)nc2c1CSCC2` [XAV939] (top concentration tested 50000 nM), the “fitted bottom plateau of viability curve” value is 81.5% in the experiment on NCI-H2122 [1], 88.7% in the experiment on NCI-H358 and 89.3% in the experiment on SW837 [2].
For `O=C(c1cc(Cc2n[nH]c(=O)c3ccccc23)ccc1F)N1CCN(C(=O)C2CC2)CC1` [Olaparib] (top concentration tested 50000 nM), in that order: 63.9%, 56.6% and 88.2%.
For `CCCc1cc(C)[nH]c(=O)c1CNC(=O)c1cc(-c2ccnc(N3CCN(C)CC3)c2)cc2c1cnn2C(C)C` [GSK343] (top concentration tested 4999.9 nM), in that order: 83.2%, 92.7% and 94.5%.
For `C[C@H](NC(=O)c1c(N)nn2cccnc12)c1cc2cccc(C#Cc3cnn(C)c3)c2c(=O)n1-c1ccccc1` [IPI-549] (top concentration tested 1000 nM), in that order: 86.2%, 91% and 91.6%.
On to `O=C(c1c(F)ccc(NS(=O)(=O)N2CC[C@@H](F)C2)c1F)c1c[nH]c2ncc(-c3cnc(C4CC4)nc3)cc12` [PLX8394] (top concentration tested 5000 nM), for which the “fitted bottom plateau of viability curve” value with NCI-H2122 [1] turned out to be 78.7%; with NCI-H358, 57.8%; in the experiment on SW837 [2] it was 96.3%.
For `CS(=O)(=O)CCNCc1ccc(-c2ccc3ncnc(Nc4ccc(OCc5cccc(F)c5)c(Cl)c4)c3c2)o1` [Lapatinib] (top concentration tested 1000 nM), in that order: 77.5%, 58.4% and 92.9%.
Take `COc1cc2nc(C)nc(N[C@H](C)c3cc(N)cc(C(F)(F)F)c3)c2cc1O[C@H]1CCOC1` [BI-3406 (SOSi)] (top concentration tested 1000.1 nM): the entries for the “fitted bottom plateau of viability curve” value with NCI-H2122 [1], in the experiment on NCI-H358 and in the experiment on SW837 [2] were 69.4%, 82% and 102%, respectively.
As for `Nc1ccn([C@@H]2O[C@H](CO)[C@@H](O)[C@@H]2O)c(=O)n1` [Cytarabin] (top concentration tested 999.93 nM), the “fitted bottom plateau of viability curve” value was 32.3% with NCI-H2122 [1] and 0% with SW837 [2]. Further, the “relative IC50 of cell viability” value with NCI-H2122 [3] is 238 nM; in the experiment with SW837 [4], 949 nM.
As to `CC1(N)CCN(c2cnc(-c3cccc(Cl)c3Cl)c(N)n2)CC1` [SHP099] (top concentration tested 1000.1 nM), the “fitted bottom plateau of viability curve” value amounted to 84.1% in the experiment with NCI-H2122 [1], 88.2% in the experiment with NCI-H358 and 97% in the experiment on SW837 [2].
On to `Cc1c(Cn2c(C)nc3c(C(=O)O)cc(N4CCOCC4)cc32)cccc1C(F)(F)F` (top concentration tested 9999.9 nM), for which the “fitted bottom plateau of viability curve” value in the experiment on NCI-H2122 [1] was 70.8%; in the experiment on NCI-H358, 93.8%; in the experiment with SW837 [2], 98.7%.
For `CN1CC[C@H](c2c(O)cc(O)c3c(=O)cc(-c4ccccc4Cl)oc23)[C@H](O)C1` [Flavopiridol] (top concentration tested 500.11 nM), the “fitted bottom plateau of viability curve” value in the experiment on NCI-H2122 [1] is 3.96%; with SW837 [2] it was 0%. In addition, the “relative IC50 of cell viability” value with NCI-H2122 [3] worked out at 149 nM; in the experiment with SW837 [4], 331 nM.
For `CC(C)c1cc(-c2n[nH]c(=O)n2-c2ccc3c(ccn3C)c2)c(O)cc1O` [Ganetespib] (top concentration tested 99.888 nM), the “fitted bottom plateau of viability curve” value with NCI-H2122 [1] was found to be 8.33%; with SW837 [2], 0%. Also, the “relative IC50 of cell viability” value with NCI-H2122 [3] is 11.2 nM; with SW837 [4] it was 87.1 nM.
For `N#CN=C(NCCCCCCOc1ccc(Cl)cc1)Nc1ccncc1` [GMX1778] (top concentration tested 9999.9 nM), in that order: 5.11%, 17.9%, 210 nM and 30.6 nM.
For `COc1cc2cc(c1Cl)N(C)C(=O)C[C@H](OC(=O)C(C)C)[C@]1(C)O[C@@H]1[C@H](C)[C@@H]1C[C@@](O)(NC(=O)O1)[C@H](OC)/C=C/C=C(\C)C2` [Ansamitocin P3] (top concentration tested 99.976 nM), in that order: 3.79%, 26.7%, 0.0585 nM and 0.162 nM.
Consider `O=C(/C=C/N1C[C@H]2C[C@@H]1CN2c1ccccn1)c1ccccc1O` [PFI-3] (top concentration tested 50000 nM), for which the “fitted bottom plateau of viability curve” value with NCI-H2122 [1] worked out at 94%; in the experiment on NCI-H358, 93.4%; with SW837 [2], 98.3%.
For `CC(C)N(CCCNC(=O)Nc1ccc(C(C)(C)C)cc1)C[C@H]1O[C@@H](n2ccc3c(N)ncnc32)[C@H](O)[C@@H]1O` (top concentration tested 50000 nM), in that order: 67.3%, 81.5% and 93.4%.
For the compound `O=C(c1ccc(F)c(F)c1Nc1ccc(I)cc1F)N1CC(O)([C@@H]2CCCCN2)C1` [Cobimetinib] (top concentration tested 999.97 nM), the “fitted bottom plateau of viability curve” value in the experiment with NCI-H2122 [1] is 3.48%; in the experiment on SW837 [2], 31.2%. Also, the “relative IC50 of cell viability” value in the experiment on NCI-H2122 [3] was 139 nM; in the experiment on SW837 [4], 178 nM.
For `CC(C)(C)c1ccc(S(=O)(=O)NCc2ccc(C(=O)Nc3cccnc3)cc2)cc1` [STF-31] (top concentration tested 10000 nM), in that order: 12.7%, 0%, 5790 nM and 6500 nM.
For `Nc1ccn([C@@H]2O[C@H](CO)[C@@H](O)C2(F)F)c(=O)n1` [Gemcitabine] (top concentration tested 99.925 nM), in that order: 28.4%, 18%, 7.62 nM and 12.3 nM.
For the compound `CN(NC(=O)CC(=O)NN(C)C(=S)c1ccccc1)C(=S)c1ccccc1` [Elesclomol] (top concentration tested 10000 nM), the figures for the “fitted bottom plateau of viability curve” value in the experiment with NCI-H2122 [1] and in the experiment on SW837 [2] were 1.27% and 2.84%, respectively. In addition, the “relative IC50 of cell viability” value with NCI-H2122 [3] was determined as 22.7 nM; in the experiment on SW837 [4], 39 nM.
For `Nc1nc(Cl)nc2c1ncn2[C@@H]1O[C@H](CO)[C@@H](O)[C@@H]1F` [Clofarabine] (top concentration tested 10000 nM), in that order: 23.7%, 13.4%, 322 nM and 1150 nM.
For `O=C(O)C(=O)O.[NH-][C@@H]1CCCC[C@H]1[NH-].[Pt+2]` [Oxaliplatin] (top concentration tested 50000 nM), in that order: 31.5%, 21%, 9200 nM and 5890 nM.
As to `C[C@H](Nc1ncnc2nc[nH]c12)c1cc2cccc(Cl)c2c(=O)n1-c1ccccc1` [Duvelisib] (top concentration tested 9999.9 nM), the “fitted bottom plateau of viability curve” value in the experiment on NCI-H2122 [1] is 56.5%; with NCI-H358, 61%; in the experiment with SW837 [2] it was 94.1%.
For `O=C(C1CC1)N1CC[C@@H](Cn2c(-c3ccc(-c4ccc5occc5c4)cc3)nc3cnccc32)C1` (top concentration tested 9999.9 nM), in that order: 75.1%, 96.6% and 91.7%.
`O=P1(N(CCCl)CCCl)NCCCO1` (stereo not given) [Cyclophosphamide] (top concentration tested 10000 nM): the “fitted bottom plateau of viability curve” value was determined as 88.9% in the experiment on NCI-H2122 [1], 99.7% in the experiment on NCI-H358 and 87.3% in the experiment on SW837 [2].
With `CO[C@@]12[C@H](COC(N)=O)C3=C(C(=O)C(C)=C(N)C3=O)N1C[C@@H]1N[C@@H]12` [Mitomycin C] (top concentration tested 10000 nM), the entries for the “fitted bottom plateau of viability curve” value with NCI-H2122 [1] and with SW837 [2] were 2.51% and 0.69%, respectively. Further, the “relative IC50 of cell viability” value with NCI-H2122 [3] turned out to be 460 nM; in the experiment on SW837 [4], 240 nM.
For the compound `CC[C@H](Nc1ncnc2[nH]cnc12)c1nc2cccc(F)c2c(=O)n1-c1ccccc1` [Cal-101] (top concentration tested 10000 nM), the “fitted bottom plateau of viability curve” value in the experiment with NCI-H2122 [1] is 75.5%; with NCI-H358 it was 84.2%; in the experiment with SW837 [2] it was 85.3%.
`COc1cc([C@@H]2c3cc4c(cc3[C@@H](O[C@@H]3O[C@@H]5CO[C@@H](C)O[C@H]5[C@H](O)[C@H]3O)[C@H]3COC(=O)[C@H]23)OCO4)cc(OC)c1O` [Etoposide] (top concentration tested 10000 nM): the “fitted bottom plateau of viability curve” value in the experiment on NCI-H2122 [1] worked out at 51.5%; with SW837 [2], 14.5%. Besides, the “relative IC50 of cell viability” value with NCI-H2122 [3] came to 995 nM; in the experiment on SW837 [4] it was 1340 nM.
Take `CC/C(=C(\c1ccccc1)c1ccc(OCCN(C)C)cc1)c1ccccc1` [Tamoxifen] (top concentration tested 10000 nM): the “fitted bottom plateau of viability curve” value in the experiment with NCI-H2122 [1] came to 66%; in the experiment with NCI-H358, 67.9%; in the experiment on SW837 [2], 88.6%.
`CC(=O)Nc1cccc(-n2c(=O)n(C3CC3)c(=O)c3c(Nc4ccc(I)cc4F)n(C)c(=O)c(C)c32)c1` [Trametinib] (top concentration tested 1000 nM): the “fitted bottom plateau of viability curve” value amounted to 3.01% in the experiment with NCI-H2122 [1] and 11.6% with SW837 [2]. Also, the “relative IC50 of cell viability” value in the experiment with NCI-H2122 [3] worked out at 21.7 nM; with SW837 [4], 33.4 nM.
For `CC(=O)[C@]1(O)Cc2c(O)c3c(c(O)c2[C@@H](O[C@H]2C[C@H](N)[C@H](O)[C@H](C)O2)C1)C(=O)c1ccccc1C3=O` [Idarubicin] (top concentration tested 100.01 nM), in that order: 39.7%, 38.7%, 9.8 nM and 15.3 nM.
For `CC[C@]1(O)C[C@@H]2CN(CCc3c([nH]c4ccccc34)[C@@](C(=O)OC)(c3cc4c(cc3OC)N(C)[C@H]3[C@@](O)(C(=O)OC)[C@H](OC(C)=O)[C@]5(CC)C=CCN6CC[C@]43[C@@H]65)C2)C1` [Vinblastine] (top concentration tested 99.992 nM), in that order: 4.54%, 0%, 4.34 nM and 80.2 nM.
In the case of `O=c1cc(-c2cccc3c2Sc2ccccc2S3)oc(N2CCOCC2)c1` (top concentration tested 9999.9 nM), the “fitted bottom plateau of viability curve” value worked out at 70.7% in the experiment with NCI-H2122 [1], 76.8% with NCI-H358 and 101% with SW837 [2].
